Where two headings read alike, the source gives them in different places. Marks after values point to notes of the source that are not given here.
Assays:
[1] = test system: HT29 cells; experiment: Sulforhodamine B (SRB) anti-proliferation assay, HT29; type: cell-based
Description: (§1) Cytoxic effects were determined using the sulforhodamine B (SRB) assay. Briefly, 5000 viable cells were plated into 96-well plates and incubated overnight prior to exposure with different concentrations of drugs. Cells were exposed to increasing concentrations of everolimus (0–200 nM), SN38 (0–8 nM), and combinations of the two. Following a 72 hour incubation, media was removed and cells were fixed with cold 10% trichloroacetic acid for 30 minutes at 4° C. Cells were washed with water and stained with 0.4% SRB for 30 minutes at room temperature. Cells were washed again with 1% acetic acid and stain was solubilized with 10 mM tris at room temperature and read at an OD of 565 nm. […] The resulting Combination Index (CI) was used as a quantitative measure of the degree of interaction between different drugs. A CI value equal to 1 denotes additivity; CI greater than 1, antagonism; CI less than 1, synergism.

[2] = test system: HCT116 cells; experiment: Sulforhodamine B (SRB) anti-proliferation assay, HCT116; type: cell-based
Description: as §1

[3] = test system: HCT116 cells; experiment: In vitro metabolomics, HCT116 cells; type: cell-based; conditions: 24 and 96 hours exposure to 30nM RAD001
Description: Metabolomics was performed in vitro on HCT116
(KRAS mt; PIK3CA mt) and HT29 (BRAF mt;
PIK3CA mt) cells after 0 (control), 24 and 96 hours exposure to 30nM RAD001. In both cell lines after 24 and 96 hours glucose uptake was reduced showing a decrease in proliferation. […]

[4] = test system: HT29 tumors; experiment: NMR-based metabolomics of HT29 tumors; type: in vivo, mice; conditions: end of study
Description: (§2) When HT29 and HCT116 tumors reached an average volume of ∼325 mm^3 animals were randomized into four treatment groups (n = 9–10 mice per group): (i) vehicles, (ii) 5 mg/kg everolimus (RAD) by oral gavage (PO) daily, (iii) 10 mg/kg irinotecan (IRI) once weekly by intravenous (iv) tail vein injection, and (iv) a combination of RAD and IRI. Everolimus, diluted in sterile water, and irinotecan, diluted in sterile 0.9% saline, were administered at 4 mL/kg. Animals were treated for 28 days. Tumor volumes and body weights were measured 2–3 times weekly. On day 28 of treatment 3–6 animals per group were sacrificed, approximately 24 hours following everolimus treatment, and tumors harvested for metabolomic analysis.
For metabolomic analysis, animals were fasted for 4 hours then received 250 mg/kg of [1-^13C] glucose (Cambridge Isotopes, Cambridge, MA) by IV injection 60 minutes prior to tumor harvesting. Snap-frozen tumor specimens underwent two-phase acid extraction procedure (using 8% perchloric acid) previously established and extensively published [19]–[22]. Further details may also be found in Supplement S1 (section SA.2.).

[5] = test system: ribosomal phospho-S6 kinase (pS6RP); experiment: Western blot, pS6RP in CRC cell lines; type: cell-based; conditions: everolimus 20 nM, 24 hours, all cell lines
Description: Cells were seeded into 6-well plates 24 hours prior to treatment with each drug alone or in combination for 24 hours. Cells were scraped into RIPA buffer containing protease inhibitors, EDTA, NaF, and sodium orthovanadate. Total protein was determined using the Pierce 660 nm Protein Assay (Pierce, Rockford, IL). Thirty micrograms of total protein was loaded onto a 4–12% gradient gel, electrophoresed and transferred to nitrocellulose using the iBlot system (Invitrogen, Carlsbad, CA). Membranes were blocked for one hour at room temperature with Licor Blocking Buffer (Licor, Lincoln, NE) prior to overnight incubation at 4°C with one of the following antibodies: pS6RP, tS6RP, pAKT, tAKT, pERK, tERK, p21, PARP, actin and α-tubulin (Cell Signaling, Beverly, MA). All antibodies were used at a 1∶1000 dilution except for pERK, which was used at 1∶2000. Following primary antibody incubation, blots were washed in TBS-Tween(0.1%), then incubated with the appropriate secondary antibody at 1∶15,000 (Licor, Lincoln, NE) for one hour at room temperature. After three additional washes, blots were developed using the Licor Odyssey (Licor, Lincoln, NE).

[6] = test system: HCT116 tumor xenografts; experiment: Therapeutic study and tumor growth modeling, HCT116 tumor xenografts; type: in vivo, mice
Description: For tumor bearing studies, cells were harvested and resuspended in a 1∶1 mixture of serum-free RPMI and Matrigel (BD Bioscience). One million cells were injected subcutaneously into each rear flank of mice. Tumor volumes, measured by digital calipers, were calculated by V (mm^3) = length x (width)^2 x 0.5236.
as §2
Data from the in vivo study was modeled to assess the therapeutic benefit of adding everolimus to irinotecan. The model used was similar to a previously published model for assessing combination therapy. Some modifications were made and details of the model can be found in Supplement S1 (section SA.3.) and Supplement S2. All modeling was performed on individual animal tumor volume data and modeled with SAAM II version 2.1. […]
are presented in Tables 1 and 2 in Supplement B. Individual fits of the model to the data can also be found in Supplement B. The average growth terms for each tumor type were then fixed at the average parameter value and used to determine the single agent effects (kx) of each compound by fitting the following equation: […] where cx(t) is the concentration of drug x with respect to time. Individual tumors were modeled and the average value of kx determined (Supplement B Tables 1 & 2) for each single agent treatment. This value was used to fit the following equation to the combination tumor growth data to determine the degree of interaction between the two drugs.
, the interaction term, was determined for each individual tumor for each tumor type and the data is presented in Table 2 in the main text and individual fits can be found in Supplement B.
We determined that values greater than 1.3 are synergistic, between 1.3 and 0.7 are additive, between 0.7 and 0 are less than additive, and negative values for are antagonistic. These ranges were selected based on the model fits. The CV% for the model fits ranged from 15 to 50 with an average CV% of approximately 30%. Therefore we assume an average variance of 30% making the additive range from 1.3 to 0.7 (1 + 30% and 1- 30%). […]

[7] = Human, cited from earlier work
[8] = 10 mg daily oral, steady-state, ref 25

CO[C@H]1C[C@@H]2CC[C@@H](C)[C@@](O)(O2)C(=O)C(=O)N2CCCC[C@H]2C(=O)O[C@H]([C@H](C)C[C@@H]2CC[C@@H](OCCO)[C@H](OC)C2)CC(=O)[C@H](C)/C=C(\C)[C@@H](O)[C@@H](OC)C(=O)[C@H](C)C[C@H](C)/C=C/C=C/C=C/1C [Everolimus, 40-O-(2-hydroxyethyl)-rapamycin]
%Growth Inhibition ([1]; HT29, RAD (20 nM), SN38 (4 nM) or the combination of the two, Figure 2): 74% | IC50 ([1]; Homo sapiens, HT-29, HT29 cells): 1.2 nM | %Growth Inhibition ([2]; HCT116, RAD (20 nM), SN38 (4 nM) or the combination of the two, Figure 2): 49% | IC50 ([2]; Homo sapiens, HCT-116, HCT116 cells): 25 nM | glucose uptake [3]: reduced | effects on glucose metabolism [4]: decrease in lactate and glycolysis | effect on ribosomal phospho-S6 kinase (pS6RP) [5]: able to inhibit | k2 (SD), single agent effect ([6]; HCT116 (KRAS and PIK3CA mutant), RAD): 0.000482 (0.00011) mL/ng*day-1 | average tumor growth inhibition, TGI ([6]; HCT116 xenografts, 5 mg/kg everolimus PO daily, 10 mg/kg irinotecan iv once weekly, or combination, 28 days): 44% | AUC0→t ([7]; 5 mg daily oral, ref 25): 238 ± 77 ng·h/mL | Cmin ([7]; 5 mg daily oral, ref 25): ^†5.4 ng/mL | AUC0→t ([7]; 5 mg daily oral, ref 26): 543 ± 189 ng·h/mL | Cmin ([7]; 5 mg daily oral, steady-state, estimated from graph in reference): ∼12–14^bd ng/mL | Cmax ([7]; 5 mg daily oral, steady-state): 32±9 ^b ng/mL | AUC0→t ([7]; 10 mg daily oral, ref 25): 514 ± 231 ng·h/mL | AUC0→t ([7]; 10 mg daily oral, ref 26): 711 ± 113 ng·h/mL | Cmin ([7]; 10 mg daily oral, steady-state, estimated from graph in reference): ∼20^bd ng/mL | Cmax [7, 8]: 61±17 ^b ng/mL | Cmin [7, 8]: 13.3 ^b ng/mL | Cmax ([7]; 10 mg daily oral, steady-state, ref 26): 66±1.4 ^b ng/mL

Reference: PMC3592886, “Utilization of Quantitative In Vivo Pharmacology Approaches to Assess Combination Effects of Everolimus and Irinotecan in Mouse Xenograft Models of Colorectal Cancer” (PLoS ONE, 2013)
